≈ marks a conversion by molar mass, not a printed value. Numbered stars: 1 amine (or outer) side, 2 acyl side, 3 side chain; on linkers, the order of the positions; unused ones are H or OH. Square brackets hold non-standard residues; d marks the D form. Peptide text beside a SMILES is read from it. dAla(ψthiazole) = C[C@@H](N[*:1])c1nc(C(=O)[*:2])cs1; Trp(4-OMe) = COc1cccc2[nH]cc(C[C@H](N)C(=O)O)c12; X1 = CC(=O)[C@](C)(N[*:1])C(=O)[*:2]; dNMeY = CN[C@H](Cc1ccc(O)cc1)C(=O)O; Dhb = C/C=C(\N)C(=O)O; Sar = CNCC(=O)O
How the values were obtained:
[1] = Cytotoxicity against African green monkey Vero cells assessed as reduction in cell viability measured after 72 hrs by MTT assay; assay type: toxicity, cell-based; settings: chlorocebus sabaeus
[2] = test system: Human alphaherpesvirus 3; assay: Antiviral activity against VZV infected HFF cells assessed as reduction in viral replication; assay type: functional, organism-based; settings: Human alphaherpesvirus 3, HFF
[3] = test system: Human alphaherpesvirus 1; assay: Antiviral activity against HSV-1 infected in African green monkey Vero cells by plaque reduction assay; assay type: functional, organism-based; settings: Human alphaherpesvirus 1, Vero
[4] = test system: Human alphaherpesvirus 2; assay: Antiviral activity against HSV-2 186 infected in African green monkey Vero cells assessed as reduction in virus induced cytopathogenicity by plaque reduction assay; assay type: functional, organism-based; settings: Human alphaherpesvirus 2, Vero
[5] = test system: Human immunodeficiency virus 2; assay: Antiviral activity against HIV-2 ROD infected in human MT4 cells assessed as protection against virus induced cytopathic effect and measured after 5 days by MTT spectrophotometric assay; assay type: functional, organism-based; settings: Human immunodeficiency virus 2, ROD, MT4, 120 h
[6] = test system: Human immunodeficiency virus 2; assay: Antiviral activity against HIV-2 ROD infected in C8166 cells assessed as reduction in viral replication measured after 3 days by ELISA; assay type: functional, organism-based; settings: Human immunodeficiency virus 2, ROD, C8166, 72 h
[7] = test system: Human immunodeficiency virus 2; assay: Antiviral activity against wild type HIV-2 CBL-20 infected in human MT4 cells assessed as protection against virus-induced cytopathic effect incubated for 5 days by MTT assay; assay type: functional, organism-based; settings: Human immunodeficiency virus 2, CBL-20, MT4, 120 h
[8] = test system: Human immunodeficiency virus 1; assay: Antiviral activity against wild type HIV-1 IIIB infected in human MT4 cells assessed as protection against virus-induced cytopathic effect incubated for 5 days by MTT assay; assay type: functional, organism-based; settings: Human immunodeficiency virus 1, IIIB, MT4, 120 h
[9] = test system: Human immunodeficiency virus 1; assay: Antiviral activity against HIV1 9495 infected in human C8166 cells assessed as protection against virus-induced cytopathic effect incubated for 5 days by MTT assay; assay type: functional, organism-based; settings: Human immunodeficiency virus 1, 9495, C8166, 120 h
[10] = test system: Human immunodeficiency virus 1; assay: Antiviral activity against HIV1 A17 infected in human C8166 cells assessed as protection against virus-induced cytopathic effect incubated for 5 days by MTT assay; assay type: functional, organism-based; settings: Human immunodeficiency virus 1, A17, C8166, 120 h
[11] = Cytotoxicity against human MT4 cells assessed as reduction in cell viability incubated for 5 days by MTT assay; assay type: toxicity, cell-based; settings: time 5 day
[12] = test system: Human alphaherpesvirus 1; assay: Antiviral activity against HSV-1 at 25 uM relative to control; assay type: functional
[13] = test system: A549; assay: Cytotoxicity against human A549 cells assessed as reduction in cell growth incubated for 5 days by MTS assay; assay type: functional; settings: A549, 120 h, time 5 day
[14] = biological target: Human immunodeficiency virus type 1 reverse transcriptase (Human immunodeficiency virus 1, UniProt Q72547); assay: Inhibition of HIV-1 NL4-3 reverse transcriptase by RT-PCR analysis
[15] = Cytotoxicity against human C8166 cells assessed as reduction in cell growth by MTT assay; assay type: toxicity, cell-based
[16] = test system: Human immunodeficiency virus 1; assay: Antiviral activity against HIV1 infected in C8166 cells assessed as reduction in viral replication measured after 3 days by ELISA; assay type: functional, organism-based
[17] = test system: Human alphaherpesvirus 1; assay: Antiviral activity against HSV-1 KOS infected in African green monkey Vero cells assessed as reduction in virus induced cytopathogenicity by plaque reduction assay; assay type: functional, organism-based; settings: Human alphaherpesvirus 1, KOS
[18] = test system: Human alphaherpesvirus 1; assay: Antiviral activity against HSV-1 106 infected in African green monkey Vero cells assessed as reduction in virus induced cytopathogenicity by plaque reduction assay; assay type: functional, organism-based; settings: Human alphaherpesvirus 1, 106, Vero
[19] = test system: Human alphaherpesvirus 1; assay: Antiviral activity against HSV-1 153 infected in African green monkey Vero cells assessed as reduction in virus induced cytopathogenicity by plaque reduction assay; assay type: functional, organism-based; settings: Human alphaherpesvirus 1, 153, Vero
[20] = test system: Human alphaherpesvirus 1; assay: Antiviral activity against HSV-1 blue infected in African green monkey Vero cells assessed as reduction in virus induced cytopathogenicity by plaque reduction assay; assay type: functional, organism-based; settings: Human alphaherpesvirus 1, blue
[21] = test system: Influenza A virus; assay: Antiviral activity against influenza A virus (H1N1/A/WSN/33) infected in MDCK cells assessed as inhibition of cytopathic effect incubated for 48 hrs by MTT assay; assay type: functional, organism-based; settings: H1N1/A/WSN/33, MDCK
[22] = test system: Human immunodeficiency virus 1; assay: Antiviral activity against HIV1; assay type: functional, organism-based
[23] = test system: SARS-CoV-2; assay: microbe, parasite or virus in culture; settings: Severe acute respiratory syndrome coronavirus 2, NRC-03-nhCoV, Vero C1008, 72 h
[24] = Cytotoxicity against African green monkey Vero E6 cells assessed as reduction in cell growth incubated for 24 hrs by WST-8 assay; assay type: toxicity, cell-based, Vero C1008; settings: chlorocebus sabaeus
[25] = biological target: T1, Replicase polyprotein 1ab (Severe acute respiratory syndrome coronavirus 2, UniProt P0DTD1); assay: Inhibition of SARS-CoV-2 3CL protease by FRET assay
[26] = test system: SARS-CoV-2; assay: Antiviral activity against SARS-CoV-2 […] B.1.351 Beta infected in human 293TA cells assessed as reduction of viral growth measured after 48 hrs by luciferase assay; assay type: functional, organism-based; settings: Severe acute respiratory syndrome coronavirus 2, […] B.1.351 Beta
[27] = test system: SARS-CoV-2; assay: Antiviral activity against SARS-CoV-2 B.1.1.7 infected in human Calu-3 cells assessed as inhibition of viral infection measured after 48 hrs by Hoechst 33342 staining based analysis; assay type: functional, organism-based; settings: Severe acute respiratory syndrome coronavirus 2, B.1.1.7, Calu-3, 48 h
[28] = test system: Calu-3; assay: Cytotoxicity against human Calu-3 cells assessed as reduction in cell viability measured after 48 hrs by Hoechst 33342 staining based analysis; assay type: functional
[29] = test system: SARS-CoV-2; assay: Antiviral activity against SARS-CoV-2 RG2674 infected in African green monkey Vero cells assessed as reduction in virus-induced cytopathic effect incubated for 5 days by microscopic analysis; assay type: functional, organism-based; settings: Severe acute respiratory syndrome coronavirus 2, RG2674, Vero, 120 h
[30] = biological target: T1, Replicase polyprotein 1ab; assay: Inhibition of SARS-CoV-2 3CL protease

## CCCCCCCCCc1oc2c(O)ccc(-c3oc4cc(O)cc(O)c4c(=O)c3O[C@@H]3O[C@H](CO)[C@H](O)[C@H](O)[C@H]3O)c2c1C=O
[1]
  CC50 at 72 h: 166 µM
[2]
  EC50: 23.5 µM
[3]
  EC50: 23.5 µM
[4]
  EC50: 36.4 µM

## C=C(C)[C@@]12O[C@@]3(/C=C/C=C/C=C/CCC)O[C@@H]1[C@@H]1[C@@H]4O[C@]4(CO)[C@@H](O)[C@]4(O)C(=O)C(C)=C[C@H]4[C@@]1(O3)[C@H](C)[C@H]2OC(=O)/C=C/c1ccc(O)cc1
[5]
  EC50: > 0.034 µM

## C=C(C)[C@]1(O)C[C@@H](C)[C@@]2(O)[C@H]([C@H]1OC(=O)/C=C/C=C/CCCCC)[C@@H]1O[C@]1(CO)[C@@H](O)[C@]1(O)C(=O)C(C)=C[C@H]12
[6]
  EC50: 0.0189 µg/mL (≈ 0.0345 µM)
[7]
  EC50: 0.0319 µg/mL (≈ 0.0584 µM)
[8]
  EC50: 0.00872 µg/mL (≈ 0.016 µM)
[9]
  EC50: 0.0157 µg/mL (≈ 0.0286 µM)
[10]
  EC50: 0.00381 µg/mL (≈ 0.00697 µM)
[11]
  CC50 at 120 h: 65.6 µg/mL (≈ 120 µM)

## C=C1CC[C@]2(O)[C@H]1CC1=C(C)C(=O)OC1=C[C@]2(C)O
[12]
  Activity: 69.2%

## COc1ccc(C[C@@H](CO)[C@H](COC(C)=O)Cc2ccc(OC)c(OC)c2)cc1OC
[13]
  CC50: 11.6 µg/mL (≈ 26.8 µM)
[14]
  IC50: 12.2 µM

## CC(C)CC(=O)O[C@H]1/C=C/C=C\C(=O)O[C@H]2[C@@H](C)C[C@@H]3[C@]2(O)[C@H](O)[C@@]2(CO)O[C@H]2[C@H]2[C@H]4OC5(c6ccccc6)O[C@@H]([C@@H](C)[C@@]23O5)[C@@]4(O)[C@](C)(O)C[C@H]2CC[C@H]1[C@H]2C
[15]
  CC50: 0.0222 µM
[16]
  EC50: 0.76 10^-3nmol

## COc1ccc(C[C@@H]2NC(=O)[C@@H]3CCCN3C(=O)[C@H](C(C)C)NC(=O)[C@@H](Cc3ccc(O)cc3)N(C)C(=O)[C@H](Cc3ccc(OC)cc3)NC2=O)cc1 (cyclo(PY(Me)Y(Me)[dNMeY]V))
[1]
  CC50 at 72 h: 209 µM
[17]
  EC50: 7.9 µM
[18]
  EC50: 10.4 µM
[19]
  EC50: 8.28 µM
[20]
  EC50: 7.9 µM

## C/C=C1\NC(=O)[C@@H](C)NC(=O)CNC(=O)[C@](C)(C(C)=O)NC(=O)[C@H](Cc2c[nH]c3cccc(OC)c23)NC(=O)c2csc(n2)[C@@H](C)NC(=O)CN(C)C1=O (cyclo([Dhb][Sar][dAla(ψthiazole)][Trp(4-OMe)][X1]G[dA]))
[21]
  EC50: 0.3 µM

## O=c1cc(-c2ccc(O)c(-c3c(O)cc(O)c4c(=O)cc(-c5ccc(O)cc5)oc34)c2)oc2cc(O)cc(O)c12 [AMENTOFLAVONE]
[22]
  EC50: 8.3 µM

## O=C(O)[C@H]1O[C@@H](Oc2cc3oc(-c4ccccc4)cc(=O)c3c(O)c2O)[C@H](O)[C@@H](O)[C@@H]1O [BAICALIN]
[23]
  EC50: 27.9 µM
[24]
  CC50 at 24 h: > 200 µM

## CC(C)=CCC/C(C)=C/COc1c2ccoc2cc2oc(=O)ccc12 [BERGAMOTTIN]
[25]
  IC50: 9.64 µM
[26]
  IC50: 14.2 µM
[27]
  IC50: 8.15 µM
[28]
  CC50: > 100 µM

## Nc1ncnc2c1ncn2[C@@H]1O[C@H](CO)C[C@H]1O [CORDYCEPIN]
[29]
  EC50: 2 µM

## COc1cc(O)c(C(=O)[C@@H]2[C@H](CC=C(C)C)C(C)=CC[C@H]2c2ccccc2)c(O)c1 [PANDURATIN A]
[24]
  CC50 at 24 h: 14.7 µM
[30]
  IC50: 0.81 µM

— ChEMBL document CHEMBL5537109, “Natural products as potential lead compounds to develop new antiviral drugs over the past decade” (Eur J Med Chem, 2023)
